US10336762B2 (priority 2017, dated 2019)
Like-named read-outs stand apart in the source and are kept apart here.

Experiments:
TNFα = assay: cells; type: cell-based, human; settings: LPS-stimulated human monocytes, read-out: EC50 TNF
IRAK4 enzyme = IRAK4 enzyme (Homo sapiens (Human), UniProt Q9NWZ3); assay: biochemical; type: biochemical; settings: IRAK4 enzyme, 500 μM ATP
[1] = Homo sapiens, Monocyte, TNFα content
[2] = Homo sapiens, Monocyte, TNFα by TR-FRET

Sequence of IRAK4 enzyme (Q9NWZ3 whole entry): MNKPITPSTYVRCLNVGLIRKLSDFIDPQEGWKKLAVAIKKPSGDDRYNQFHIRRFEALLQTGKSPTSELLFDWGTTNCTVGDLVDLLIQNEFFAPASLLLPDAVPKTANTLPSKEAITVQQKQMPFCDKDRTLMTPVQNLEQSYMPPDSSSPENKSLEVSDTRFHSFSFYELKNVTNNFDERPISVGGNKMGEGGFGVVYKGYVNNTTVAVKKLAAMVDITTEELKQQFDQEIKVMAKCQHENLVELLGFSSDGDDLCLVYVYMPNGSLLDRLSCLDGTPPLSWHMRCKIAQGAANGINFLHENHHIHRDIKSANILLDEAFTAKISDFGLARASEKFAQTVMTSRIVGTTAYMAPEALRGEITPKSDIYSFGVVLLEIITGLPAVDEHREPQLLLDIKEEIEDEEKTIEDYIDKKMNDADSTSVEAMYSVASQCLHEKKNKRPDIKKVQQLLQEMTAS

For `CC(C)(O)[C@H](F)CNC(=O)c1cnc(-c2ccc3cc(C#N)cnn23)cc1N[C@H]1C[C@H](Cn2cc(C3CC3)nn2)C1` [Example 704, 6-(3-cyanopyrrolo[1,2-b]pyridazin-7-yl)-4-(((1r,3R)-3-((4-cyclopropyl-1H-1,2,3-triazol-1-yl)methyl)cyclobutyl)amino)-N—((R)-2-fluoro-3-hydroxy-3-methylbutyl)nicotinamide], the EC50 (TNFα; [1]) was 69 nM and the IC50 (IRAK4 enzyme; TR-FRET (HTRF)) was 1 nM.

In the case of `CC(C)Nc1cc(-c2ccc3cc(C#N)cnn23)ncc1C(=O)NCCC1(O)CCC1` [Example 91, 6-(3-cyanopyrrolo[1,2-b]pyridazin-7-yl)-N-(2-(1-hydroxycyclobutyl)ethyl)-4-(isopropylamino) nicotinamide], the EC50 (TNFα; [1]) is reported as 62 nM and the IC50 (IRAK4 enzyme; TR-FRET) is reported as < 1 nM.

For `CC(C)(O)[C@H](F)CNC(=O)c1cnc(-c2ccc3cc(C#N)cnn23)cc1Nc1ccc(O)nc1` [Example 435, (R)-6-(3-cyanopyrrolo[1,2-b]pyridazin-7-yl)-N-(2-fluoro-3-hydroxy-3-methylbutyl)-4-((6-hydroxypyridin-3-yl)amino)nicotinamide], the EC50 (TNFα; [1]) was > 10000 nM and the IC50 (IRAK4 enzyme; TR-FRET (HTRF)) was 10000 nM.

With `COC(=O)NCCNC(=O)c1cnc(-c2ccc3cc(C#N)cnn23)cc1NC12CCC(O)(CC1)CC2` [Example 746, methyl (2-(6-(3-cyano-pyrrolo[1,2-b]pyridazin-7-yl)-4-((4-hydroxy-bicyclo[2.2.2]octan-1-yl)amino)nicotinamido)ethyl)carbamate] the EC50 (TNFα; [1]) was 105 nM and the IC50 (IRAK4 enzyme; TR-FRET (HTRF)) was 1 nM.

In the case of `CC(C)(O)[C@H](F)CNC(=O)c1cnc(-c2ccc3cc(C#N)cnn23)cc1Nc1cccc(C#N)c1` [Example 141, (R)-4-((3-cyanophenyl)amino)-6-(3-cyano-pyrrolo[1,2-b]pyridazin-7-yl)-N-(2-fluoro-3-hydroxy-3-methylbutyl)nicotinamide], the EC50 (TNFα; [1]) is reported as 70 nM and the IC50 (IRAK4 enzyme; TR-FRET) is reported as < 1 nM.

`COC(=O)NC12CCC(Nc3cc(-c4ccc5cc(C#N)cnn45)ncc3C(=O)NC[C@@H](F)C(C)(C)O)(CC1)C2` [Example 500, (R)-methyl (4-((2-(3-cyano-pyrrolo[1,2-b]pyridazin-7-yl)-5-((2-fluoro-3-hydroxy-3-methylbutyl)carbamoyl)pyridin-4-yl)amino)bicyclo[2.2.1]heptan-1-yl)carbamate] showed an EC50 (TNFα; [1]) of 13 nM and an IC50 (IRAK4 enzyme; TR-FRET (HTRF)) of 1 nM.

Work on `CC(=O)N[C@@H]1CCC[C@H](Nc2cc(-c3ccc4cc(C#N)cnn34)ncc2C(=O)NC[C@@H](F)C(C)(C)O)C1` [Example 532, 4-(((1S,3R)-3-acetamidocyclohexyl)amino)-6-(3-cyano-pyrrolo[1,2-b]pyridazin-7-yl)-N-((R)-2-fluoro-3-hydroxy-3-methylbutyl) nicotinamide] yielded an EC50 (TNFα; [1]) of 122 nM and an IC50 (IRAK4 enzyme; TR-FRET (HTRF)) of 1 nM.

In the case of `CC(C)(O)[C@H](F)CNC(=O)c1cnc(-c2ccc3cc(C#N)cnn23)cc1NC[C@H]1CCN1CC(F)(F)F` [Example 894, 6-(3-cyanopyrrolo[1,2-b]pyridazin-7-yl)-N-((R)-2-fluoro-3-hydroxy-3-methylbutyl)-4-((((R)-1-(2,2,2-trifluoroethyl)azetidin-2-yl)methyl)amino)nicotinamide], the EC50 (TNFα; [2]) is reported as 245 nM and the IC50 (IRAK4 enzyme; TR-FRET) is reported as 7 nM.

With `CN1CCN(C(=O)CNC(=O)c2cnc(-c3ccc4cc(C#N)cnn34)cc2NC23CCC(O)(CC2)CC3)CC1` [Example 789, 6-(3-cyanopyrrolo[1,2-b]pyridazin-7-yl)-4-((4-hydroxybicyclo[2.2.2]octan-1-yl)amino)-N-(2-(4-methylpiperazin-1-yl)-2-oxoethyl)nicotinamide] the EC50 (TNFα; [1]) was 20 nM and the IC50 (IRAK4 enzyme; TR-FRET (HTRF)) was < 1 nM.

For `CC(C)(O)[C@H](F)CNC(=O)c1cnc(-c2ccc3cc(C#N)cnn23)cc1Nc1cn[nH]c1` [Example 70, (R)-4-((1H-pyrazol-4-yl)amino)-6-(3-cyano-pyrrolo[1,2-b]pyridazin-7-yl)-N-(2-fluoro-3-hydroxy-3-methylbutyl)nicotinamide], the EC50 (TNFα; [1]) was 47 nM and the IC50 (IRAK4 enzyme; TR-FRET) was < 1 nM.

Work on `COCCNc1cc(-c2ccc3cc(C#N)cnn23)ncc1C(=O)NC[C@@H](F)C(C)(C)O` [Example 100, (R)-6-(3-cyanopyrrolo[1,2-b]pyridazin-7-yl)-N-(2-fluoro-3-hydroxy-3-methylbutyl)-4-((2-methoxyethyl)amino) nicotinamide] yielded an EC50 (TNFα; [1]) of 195 nM and an IC50 (IRAK4 enzyme; TR-FRET) of 4 nM.

With `CC(C)(O)[C@H](F)CNC(=O)c1cnc(-c2ccc3cc(C#N)cnn23)cc1N[C@H]1CCC[C@H](O)C1` [Example 63, 6-(3-cyanopyrrolo[1,2-b]pyridazin-7-yl)-N-((R)-2-fluoro-3-hydroxy-3-methylbutyl)-4-(((1S,3S)-3-hydroxycyclohexyl)amino) nicotinamide] the EC50 (TNFα; [1]) was 57 nM and the IC50 (IRAK4 enzyme; TR-FRET) was < 1 nM.

In the case of `COC(=O)N1CCC(Nc2cc(-c3ccc4cc(C#N)cnn34)ncc2C(=O)NC[C@@H](F)C(C)(C)O)CC1` [Example 242, (R)-methyl 4-((2-(3-cyano-pyrrolo[1,2-b]pyridazin-7-yl)-5-((2-fluoro-3-hydroxy-3-methylbutyl)carbamoyl)pyridin-4-yl)amino)piperidine-1-carboxylate], the EC50 (TNFα; [1]) is reported as 191 nM and the IC50 (IRAK4 enzyme; TR-FRET) is reported as 2 nM.

`CNC(=O)c1cnc(-c2ccc3cc(C#N)cnn23)cc1NC12CCC(C(=O)NC)(CC1)CC2` [Example 485, 6-(3-cyanopyrrolo[1,2-b]pyridazin-7-yl)-N-methyl-4-((4-(methyl-carbamoyl)bicyclo[2.2.2]octan-1-yl)amino) nicotinamide] gave an EC50 (TNFα; [1]) of 39 nM and an IC50 (IRAK4 enzyme; TR-FRET (HTRF)) of 1 nM.

In the case of `CN(C)C1CCC(NC(=O)c2cnc(-c3ccc4cc(C#N)cnn34)cc2N[C@H]2CCC[C@@H](O)C2)CC1` (stereo partly drawn) [Example 366, 6-(3-cyanopyrrolo[1,2-b]pyridazin-7-yl)-N-((1r,4S)-4-(dimethylamino)cyclohexyl)-4-(((1S,3R)-3-hydroxycyclohexyl)amino) nicotinamide], the EC50 (TNFα; [1]) is reported as 162 nM and the IC50 (IRAK4 enzyme; TR-FRET) is reported as 1 nM.

With `COC(=O)NCC1(F)CC(Nc2cc(-c3ccc4cc(C#N)cnn34)ncc2C(=O)NC[C@@H](F)C(C)(C)O)C1` (single isomer, unassigned) [Example 764] the EC50 (TNFα; TNFα content) was 8 nM and the IC50 (IRAK4 enzyme; TR-FRET (HTRF)) was < 1 nM.

With `CC(C)(O)[C@H](F)CNC(=O)c1cnc(-c2ccc3cc(C#N)cnn23)cc1N[C@H]1C[C@H](CN2CCOCC2)C1` [Example 701, 6-(3-cyanopyrrolo[1,2-b]pyridazin-7-yl)-N-((R)-2-fluoro-3-hydroxy-3-methylbutyl)-4-(((1r,3R)-3-(morpholino-methyl)cyclobutyl)amino)nicotinamide] the EC50 (TNFα; [1]) was 191 nM and the IC50 (IRAK4 enzyme; TR-FRET (HTRF)) was 4 nM.

`N#Cc1cnn2c(-c3cc(NC45CCC(O)(CC4)CC5)c(C(=O)NCC4(C(F)F)COC4)cn3)ccc2c1` [Example 710, 6-(3-cyanopyrrolo[1,2-b]pyridazin-7-yl)-N-((3-(difluoromethyl)oxetan-3-yl)methyl)-4-((4-hydroxybicyclo[2.2.2]octan-1-yl)amino) nicotinamide] was tested, and the EC50 (TNFα; [1]) was 183 nM and the IC50 (IRAK4 enzyme; TR-FRET (HTRF)) was 4 nM.

With `CC(C)(O)[C@H](F)CNC(=O)c1cnc(-c2ccc3cc(C#N)cnn23)cc1N[C@H]1CCC[C@@H]1O` [Example 262, 6-(3-cyanopyrrolo[1,2-b]pyridazin-7-yl)-N-((R)-2-fluoro-3-hydroxy-3-methylbutyl)-4-(((1S,2S)-2-hydroxycyclopentyl)amino)nicotinamide] the EC50 (TNFα; [1]) was 21 nM and the IC50 (IRAK4 enzyme; TR-FRET) was < 1 nM.

In the case of `CC(C)(O)[C@H](F)CNC(=O)c1cnc(-c2ccc3cc(C#N)cnn23)cc1NC[C@H]1CCN(CC(F)(F)F)C1` [Example 901, 6-(3-cyanopyrrolo[1,2-b]pyridazin-7-yl)-N-((R)-2-fluoro-3-hydroxy-3-methylbutyl)-4-((((R)-1-(2,2,2-trifluoroethyl)pyrrolidin-3-yl)methyl)amino)nicotinamide], the EC50 (TNFα; [2]) is reported as 126 nM and the IC50 (IRAK4 enzyme; TR-FRET) is reported as 3 nM.

For `CNC(=O)OC12CCC(Nc3cc(-c4ccc5cc(C#N)cnn45)ncc3C(=O)NC[C@@H](F)C(C)(C)O)(CC1)CC2` [Example 412, (R)-4-((2-(3-cyanopyrrolo[1,2-b]pyridazin-7-yl)-5-((2-fluoro-3-hydroxy-3-methylbutyl)carbamoyl)pyridin-4-yl)amino)bicyclo[2.2.2]octan-1-yl methylcarbamate], the EC50 (TNFα; [1]) was 44 nM and the IC50 (IRAK4 enzyme; TR-FRET (HTRF)) was 1 nM.

In the case of `CCC(=O)NCc1ccc(Nc2cc(-c3ccc4cc(C#N)cnn34)ncc2C(=O)NC[C@@H](F)C(C)(C)O)cc1` [Example 204, (R)-6-(3-cyanopyrrolo[1,2-b]pyridazin-7-yl)-N-(2-fluoro-3-hydroxy-3-methylbutyl)-4-((4-(propionamido-methyl)phenyl)amino)nicotinamide], the EC50 (TNFα; [1]) is reported as 27 nM and the IC50 (IRAK4 enzyme; TR-FRET) is reported as < 1 nM.

`CC(C)(O)[C@H](F)CNC(=O)c1cnc(-c2ccc3cc(C#N)cnn23)cc1Nc1ccc(-c2cocn2)cc1` [Example 628, (R)-6-(3-cyanopyrrolo[1,2-b]pyridazin-7-yl)-N-(2-fluoro-3-hydroxy-3-methyl-butyl)-4-((4-(oxazol-4-yl)phenyl)amino) nicotinamide] was tested, and the EC50 (TNFα; [1]) was 26 nM and the IC50 (IRAK4 enzyme; TR-FRET (HTRF)) was < 1 nM.

`CC(=O)O[C@@H]1CCC[C@H](Nc2cc(-c3ccc4cc(C#N)cnn34)ncc2C(=O)NC[C@@H](F)C(C)(C)O)C1` [Example 501, (1R,3S)-3-((2-(3-cyanopyrrolo[1,2-b]pyridazin-7-yl)-5-(((R)-2-fluoro-3-hydroxy-3-methylbutyl)carbamoyl)pyridin-4-yl)amino)cyclohexyl acetate] showed an EC50 (TNFα; [1]) of 63 nM and an IC50 (IRAK4 enzyme; TR-FRET (HTRF)) of 2 nM.

`CC(C)(O)[C@H](F)CNC(=O)c1cnc(-c2ccc3cc(C#N)cnn23)cc1NC1CCOCC1` [Example 42, (R)-6-(3-cyanopyrrolo[1,2-b]pyridazin-7-yl)-N-(2-fluoro-3-hydroxy-3-methylbutyl)-4-((tetrahydro-2H-pyran-4-yl)amino)nicotinamide] was tested, and the EC50 (TNFα; [1]) was 35 nM and the IC50 (IRAK4 enzyme; TR-FRET) was < 1 nM.

`CC(C)(O)[C@H](F)CNC(=O)c1cnc(-c2ccc3cc(C#N)cnn23)cc1N` [Example 11, (R)-4-amino-6-(3-cyanopyrrolo[1,2-b]pyridazin-7-yl)-N-(2-fluoro-3-hydroxy-3-methylbutyl)nicotinamide] showed an EC50 (TNFα; [1]) of 1040 nM and an IC50 (IRAK4 enzyme; TR-FRET) of 7 nM.
